Experiments:
[1] = target: T1, recombinant human 17β-HSD1 (Homo sapiens, UniProt P14061); test: Inhibition of recombinant human 17β-HSD1 (estrone to estradiol conversion, HPLC/radioactivity); format: biochemical; settings: compound 100 nM; 30 nM estrone, 1 mM NADPH, 30 min RT
T1 construct: made in house; host or cells: Sd9 (Sf9) insect cells, baculovirus (Bac to Bac Expression System)
T1 sequence (P14061 1-328): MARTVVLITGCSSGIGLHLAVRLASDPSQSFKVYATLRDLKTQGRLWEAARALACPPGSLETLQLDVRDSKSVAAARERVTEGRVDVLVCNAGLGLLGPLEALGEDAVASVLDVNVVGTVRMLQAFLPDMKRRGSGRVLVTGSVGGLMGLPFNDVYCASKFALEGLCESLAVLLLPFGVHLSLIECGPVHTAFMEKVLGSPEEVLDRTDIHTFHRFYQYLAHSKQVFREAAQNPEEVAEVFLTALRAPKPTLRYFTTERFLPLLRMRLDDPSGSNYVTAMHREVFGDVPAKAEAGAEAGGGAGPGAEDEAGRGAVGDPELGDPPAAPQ
How it was run: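 Microsomal human 17β-HSD1 from Sf9 baculovirus (1 μg/ml) was incubated 30 min at RT in 20 mM KH2PO4 pH 7.4 with 30 nM ^3H-estrone, 1 mM NADPH and inhibitor at 1 μM or 0.1 μM (1% DMSO). Estrone and estradiol were separated by HPLC with radioactivity detection. % inhibition = 100 − % conversion relative to uninhibited control.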

[2] = Metabolic stability assay, human hepatocyte incubations; format: in vitro ADME; settings: compound 1 μM, human hepatocytes, 0-60 min at 37° C.; read-out: Human hepatocytes MetStab T½ min
Description: Compound stock solutions of the invention were prepared in […]. Final concentration of DMSO was adjusted to 1% in all samples. The in vitro metabolic stability of the compounds of the invention was determined for exemplified compounds using human hepatocyte incubations; study compounds at concentration of 1 μM were incubated 0, 10, 20, 40 and 60 min at 37° C. Samples were collected at all time points and compounds were detected by LC-MS/MS analysis. The percent compound remaining is calculated by comparing the peak area of the parent compound at each time point to time zero. In vitro metabolic stability was determined as half life (T1/2), which was determined by regression analysis of the percent parent disappearance vs. time curve.

Row | SMILES | inhibition at 0.1 µM [1] | half-life at 1 μM [2]
1 | C[C@]12CCC3c4cccc(F)c4CCC3C1[C@H](CCC(=O)Nc1ncc(F)cc1F)c1c[nH]nc12 (stereo partly drawn) [Compound 9, N-(3,5-difluoropyridin-2-yl)-3-((8aS,12S)-3-fluoro-8a-methyl-1,2,6b,7,8,8a,10,12,12a,12b-decahydronaphtho[2′,1′:4,5]indeno[1,2-c]pyrazol-12-yl)propanamide] | 82% | 1.02 h
2 | C[C@]12CCC3c4cccc(F)c4CCC3C1[C@H](CCC(=O)Nc1cc(F)ccn1)c1c[nH]nc12 (stereo partly drawn) [Compound 15, 3-((8aS,12S)-3-fluoro-8a-methyl-1,2,6b,7,8,8a,10,12,12a,12b-decahydronaphtho[2′,1′:4,5]indeno[1,2-c]pyrazol-12-yl)-N-(4-fluoropyridin-2-yl)propanamide] | 96% | 0.717 h
3 | C[C@]12CCC3c4cccc(F)c4CCC3C1[C@H](CCC(=O)Nc1ccccn1)c1c[nH]nc12 (stereo partly drawn) [Compound 18, 3-((8aS,12S)-3-fluoro-8a-methyl-1,2,6b,7,8,8a,10,12,12a,12b-decahydronaphtho[2′,1′:4,5]indeno[1,2-c]pyrazol-12-yl)-N-(pyridin-2-yl)propanamide] | 91% | 0.683 h
4 | COc1ccc(NC(=O)CC[C@@H]2c3c[nH]nc3[C@@]3(C)CCC4c5cccc(F)c5CCC4C23)nc1 (stereo partly drawn) [Compound 21, 3-((8aS,12S)-3-fluoro-8a-methyl-1,2,6b,7,8,8a,10,12,12a,12b-decahydronaphtho[2′,1′:4,5]indeno[1,2-c]pyrazol-12-yl)-N-(5-methoxypyridin-2-yl)propanamide] | 97% | 0.667 h
5 | C[C@]12CCC3c4cccc(F)c4CCC3C1[C@H](CCC(=O)N1CCNC(=O)C1)c1c[nH]nc12 (stereo partly drawn) [Compound 24, 4-(3-((8aS,12S)-3-fluoro-8a-methyl-1,2,6b,7,8,8a,10,12,12a,12b-decahydronaphtho[2′,1′:4,5]indeno[1,2-c]pyrazol-12-yl)propanoyl)piperazin-2-one] | 83% | 0.55 h
6 | C[C@]12CCC3c4cccc(F)c4CCC3C1[C@H](CCC(=O)Nc1cc3c([nH]c1=O)CCCC3)c1c[nH]nc12 (stereo partly drawn) [Compound 30, 3-((8aS,12S)-3-fluoro-8a-methyl-1,2,6b,7,8,8a,10,12,12a,12b-decahydronaphtho[2′,1′:4,5]indeno[1,2-c]pyrazol-12-yl)-N-(2-oxo-1,2,5,6,7,8-hexahydroquinolin-3-yl)propanamide] | 95% | 1.95 h
7 | CN(C)C(=O)c1ccc(NC(=O)CC[C@@H]2c3c[nH]nc3[C@@]3(C)CCC4c5cccc(F)c5CCC4C23)nc1 (stereo partly drawn) [Compound 33, 6-(3-((8aS,12S)-3-fluoro-8a-methyl-1,2,6b,7,8,8a,10,12,12a,12b-decahydronaphtho[2′,1′:4,5]indeno[1,2-c]pyrazol-12-yl)propanamido)-N,N-dimethylnicotinamide] | 95% | 1.78 h
8 | CC(C)c1ccc(NC(=O)CC[C@@H]2c3c[nH]nc3[C@@]3(C)CCC4c5cccc(F)c5CCC4C23)nc1 (stereo partly drawn) [Compound 36, 3-((8aS,12S)-3-fluoro-8a-methyl-1,2,6b,7,8,8a,10,12,12a,12b-decahydronaphtho[2′,1′:4,5]indeno[1,2-c]pyrazol-12-yl)-N-(5-isopropylpyridin-2-yl)propanamide] | 100% | 0.617 h
9 | C[C@]12CCC3c4cccc(F)c4CCC3C1[C@H](CCC(=O)Nc1ccc(N3CCOCC3)cn1)c1c[nH]nc12 (stereo partly drawn) [Compound 39, 3-((8aS,12S)-3-fluoro-8a-methyl-1,2,6b,7,8,8a,10,12,12a,12b-decahydronaphtho[2′,1′:4,5]indeno[1,2-c]pyrazol-12-yl)-N-(5-morpholinopyridin-2-yl)propanamide] | 91% | 1.12 h
10 | CN1CCN(c2ccc(NC(=O)CC[C@@H]3c4c[nH]nc4[C@@]4(C)CCC5c6cccc(F)c6CCC5C34)nc2)CC1 (stereo partly drawn) [Compound 42, 3-((8aS,12S)-3-fluoro-8a-methyl-1,2,6b,7,8,8a,10,12,12a,12b-decahydronaphtho[2′,1′:4,5]indeno[1,2-c]pyrazol-12-yl)-N-(5-(4-methylpiperazin-1-yl)pyridin-2-yl)propanamide] | 91% | 0.783 h
11 | COc1ccnc(NC(=O)CC[C@@H]2c3c[nH]nc3[C@@]3(C)CCC4c5cccc(F)c5CCC4C23)c1 (stereo partly drawn) [Compound 48, 3-((8aS,12S)-3-fluoro-8a-methyl-1,2,6b,7,8,8a,10,12,12a,12b-decahydronaphtho[2′,1′:4,5]indeno[1,2-c]pyrazol-12-yl)-N-(4-methoxypyridin-2-yl)propanamide] | 91% | 0.567 h
12 | C[C@]12CCC3c4cccc(F)c4CCC3C1[C@H](CCC(=O)Nc1cnccn1)c1c[nH]nc12 (stereo partly drawn) [Compound 51, 3-((8aS,12S)-3-fluoro-8a-methyl-1,2,6b,7,8,8a,10,12,12a,12b-decahydronaphtho[2′,1′:4,5]indeno[1,2-c]pyrazol-12-yl)-N-(pyrazin-2-yl)propanamide] | 90% | 0.517 h
13 | Cn1ccc(NC(=O)CC[C@@H]2c3c[nH]nc3[C@@]3(C)CCC4c5cccc(F)c5CCC4C23)n1 (stereo partly drawn) [Compound 54, 3-((8aS,12S)-3-fluoro-8a-methyl-1,2,6b,7,8,8a,10,12,12a,12b-decahydronaphtho[2′,1′:4,5]indeno[1,2-c]pyrazol-12-yl)-N-(1-methyl-1H-pyrazol-3-yl)propanamide] | 87% | 1.13 h
14 | C[C@]12CCC3c4cccc(F)c4CCC3C1[C@H](CCC(=O)N1Cc3ccccc3C1)c1c[nH]nc12 (stereo partly drawn) [Compound 57, 3-((8aS,12S)-3-fluoro-8a-methyl-1,2,6b,7,8,8a,10,12,12a,12b-decahydronaphtho[2′,1′:4,5]indeno[1,2-c]pyrazol-12-yl)-1-(isoindolin-2-yl)propan-1-one] | 92% | 0.967 h
15 | COc1ccc(NC(=O)CC[C@@H]2c3c[nH]nc3[C@@]3(C)CCC4c5ccc(F)cc5CCC4C23)nc1 (stereo partly drawn) [Compound 84, 3-((8aS,12S)-4-fluoro-8a-methyl-1,2,6b,7,8,8a,10,12,12a,12b-decahydronaphtho[2′,1′:4,5]indeno[1,2-c]pyrazol-12-yl)-N-(5-methoxypyridin-2-yl)propanamide] | 87% | 2.47 h
16 | CC(C)c1ccc(NC(=O)CC[C@@H]2c3c[nH]nc3[C@@]3(C)CCC4c5ccc(F)cc5CCC4C23)nc1 (stereo partly drawn) [Compound 87, 3-((8aS,12S)-4-fluoro-8a-methyl-1,2,6b,7,8,8a,10,12,12a,12b-decahydronaphtho[2′,1′:4,5]indeno[1,2-c]pyrazol-12-yl)-N-(5-isopropylpyridin-2-yl)propanamide] | 87% | 2.12 h
17 | COc1ccnc(NC(=O)CC[C@@H]2c3c[nH]nc3[C@@]3(C)CCC4c5ccc(F)cc5CCC4C23)c1 (stereo partly drawn) [Compound 90, 3-((8aS,12S)-4-fluoro-8a-methyl-1,2,6b,7,8,8a,10,12,12a,12b-decahydronaphtho[2′,1′:4,5]indeno[1,2-c]pyrazol-12-yl)-N-(4-methoxypyridin-2-yl)propanamide] | 70% | 1.28 h
18 | Cc1ccnc(NC(=O)CC[C@@H]2c3c[nH]nc3[C@@]3(C)CCC4c5ccc(F)cc5CCC4C23)c1 (stereo partly drawn) [Compound 93, 3-((8aS,12S)-4-fluoro-8a-methyl-1,2,6b,7,8,8a,10,12,12a,12b-decahydronaphtho[2′,1′:4,5]indeno[1,2-c]pyrazol-12-yl)-N-(4-methylpyridin-2-yl)-propanamide] | 79% | 1.1 h
19 | C[C@]12CCC3c4ccc(F)cc4CCC3C1[C@H](CCC(=O)Nc1ccc(N3CCOCC3)cn1)c1c[nH]nc12 (stereo partly drawn) [Compound 96, 3-((8aS,12S)-4-fluoro-8a-methyl-1,2,6b,7,8,8a,10,12,12a,12b-decahydronaphtho[2′,1′:4,5]indeno[1,2-c]pyrazol-12-yl)-N-(5-morpholinopyridin-2-yl)propanamide] | 74% | 1.25 h
20 | C[C@]12CCC3c4ccc(F)cc4CCC3C1[C@H](CCC(=O)Nc1ccc(F)cn1)c1c[nH]nc12 (stereo partly drawn) [Compound 99, 3-((8aS,12S)-4-fluoro-8a-methyl-1,2,6b,7,8,8a,10,12,12a,12b-decahydronaphtho[2′,1′:4,5]indeno[1,2-c]pyrazol-12-yl)-N-(5-fluoropyridin-2-yl)propanamide] | 84% | 1.62 h
21 | C[C@]12CCC3c4ccc(Cl)cc4CCC3C1[C@H](CCC(=O)Nc1cc3c([nH]c1=O)CCCC3)c1c[nH]nc12 (stereo partly drawn) [Compound 123, 3-((8aS,12S)-4-chloro-8a-methyl-1,2,6b,7,8,8a,10,12,12a,12b-decahydronaphtho[2′,1′:4,5]indeno[1,2-c]pyrazol-12-yl)-N-(2-oxo-1,2,5,6,7,8-hexahydroquinolin-3-yl) propanamide] | 87% | 2.58 h

— patent publication US20220041647A1, “ESTRA-1,3,5(10)-TRIENE COMPOUNDS CONDENSED IN POSITION 16(17) WITH A PYRAZOLE RING AS INHIBITORS OF 17-HSD1” (FORENDO PHARMA LTD, priority 2018, published 2022)
